{
  "source": "patent US11690860B2",
  "about": "“Treatment of HCV infected patients with cirrhosis” (Atea Pharmaceuticals, Inc., priority 2018, dated 2023)",
  "key": {"HCV GT2 replicons": {"system": "HCV GT2 replicons", "experiment": "EC95 in replicons containing HCV constructs of clinical isolates, GT2", "type": "cell-based", "conditions": "HCV GT2, expressed as equivalents of metabolite 1-7", "description": "(§1) For rapidly-replicating viruses such as HCV, maintenance of antiviral activity throughout inter-dose time intervals optimizes efficacy by reducing chances for recrudescent viral replication during inter-dose trough periods. […] In those cohorts receiving 600 mg QD, ˜30% of subjects achieved HCV RNA below the lower limit of quantitation with only seven days of therapy."}, "[1]": {"experiment": "Plasma pharmacokinetics of Compound 1 and metabolite 1-7 (LC-MS/MS) in Parts C, D and E", "type": "in vivo, human", "conditions": "for AUC Day 1 (AUCinf for Compound 1) / Cmax / half-life / Tmax / AUC SS (AUCinf for Compound 1): n=6; for Cmax / half-life / Tmax: human, in vivo", "description": "Doses were administered as the Compound 2 salt base. The free base Compound 1 equivalent is often given in parenthesis.\nPart C was a randomized, double-blind, placebo-controlled MAD study divided into three cohorts. […] The dose escalation only proceeded following satisfactory review of the data.\nHCV-infected patients were treatment-naïve with HCV RNA ≥5 log 10 IU/mL. HCV RNA was quantified using COBAS® AmpliPrep TaqMAN® v2.0 with LLQ of 15 IU/mL. Plasma drug levels were measured using LC-MS/MS. […] Cirrhosis was confirmed by prior liver biopsy or Fibroscan >12.5 kPa. […] Mean ages of enrolled subjects were 44, 39, and 56 years in the non-cirrhotic GT1b 600 mg dose cohort, non-cirrhotic GT3 cohort, and the cirrhotic cohort, respectively.\nPlasma levels of metabolite 1-7 were measured using LC-MS/MS."}, "HCV GT3 replicons": {"system": "HCV GT3 replicons", "experiment": "EC95 in replicons containing HCV constructs of clinical isolates, GT3", "type": "cell-based", "conditions": "HCV GT3, expressed as equivalents of metabolite 1-7", "description": "as §1"}, "[2]": {"conditions": "Part C, daily dosing for 7 days"}},
  "note": "“Also recorded” adds a separate entry of the source. Where two headings read alike, the source gives them in different places.",
  "data": [
    {"smiles": "CNc1nc(N)nc2c1ncn2[C@@H]1O[C@H](CO[P@@](=O)(N[C@@H](C)C(=O)OC(C)C)Oc2ccccc2)[C@@H](O)[C@@]1(C)F", "note": "[Compound 1, isopropyl((S)-(((2R,3R,4R,5R)-5-(2-amino-6-(methylamino)-9H-purin-9-yl)-4-fluoro-3-hydroxy-4-methyltetrahydrofuran-2-yl)methoxy)(phenoxy)phosphoryl)-L-alaninate]", "values": [
      {"measurement": "EC95", "setting": "HCV GT2 replicons", "value": "~0.012", "unit": "µg/mL"},
      {"measurement": "PK in cirrhotic compared with non-cirrhotic subjects", "setting": "[1]; 600 mg QD of Compound 2, Parts C/D vs Part E", "value": "comparable"},
      {"measurement": "dose proportionality of plasma exposure (peak and total)", "setting": "[1]; Part C, 150 to 600 mg Compound 2", "value": "slightly more than dose proportional from 150 mg to 300 mg and mostly dose proportional thereafter"},
      {"measurement": "AUC Day 1 (AUCinf for Compound 1)", "setting": "[1]; Part C, NC GT1b, 150 mg/d Compound 2 QD", "value": "492 ± 141", "unit": "ng/mLxh"},
      {"measurement": "AUC Day 1 (AUCinf for Compound 1)", "setting": "[1]; Part C, NC GT1b, 300 mg/d Compound 2 QD", "value": "1947 ± 1120", "unit": "ng/mLxh"},
      {"measurement": "AUC Day 1 (AUCinf for Compound 1)", "setting": "[1]; Part C, NC GT1b, 600 mg/d Compound 2 QD", "value": "3335 ± 1502", "unit": "ng/mLxh"},
      {"measurement": "accumulation", "setting": "[1]; [2]", "value": "did not accumulate over time"},
      {"measurement": "half-life (in words)", "setting": "[1]; [2]", "value": "short half-life"},
      {"measurement": "AUC Day 1 (AUCinf for Compound 1)", "setting": "[1]; Part D, NC GT3, 600 mg/d Compound 2 QD", "value": "3333 ± 1241", "unit": "ng/mLxh"},
      {"measurement": "AUC Day 1 (AUCinf for Compound 1)", "setting": "[1]; Part E, Child-Pugh A cirrhotic, 600 mg/d Compound 2 QD", "value": "3323 ± 1467", "unit": "ng/mLxh"},
      {"measurement": "absorption", "setting": "[1]; after administration of Compound 2, fasted state", "value": "rapidly and well-absorbed; also recorded: quickly absorbed"},
      {"measurement": "estimated fraction absorbed", "setting": "[1]; based on urine recovery", "value": "~50", "unit": "%"},
      {"measurement": "Cmax", "setting": "[1]; 150 mg/d, Part C, NC GT1b, 150 mg/d Compound 2 QD, read-out: Cmax Day 1", "value": "573 ± 280", "unit": "ng/mL"},
      {"measurement": "half-life", "setting": "[1]; 150 mg/d, Part C, NC GT1b, 150 mg/d Compound 2 QD, read-out: T1/2 Day 1 (converted)", "value": 37.2, "unit": "min"},
      {"measurement": "Tmax", "setting": "[1]; 150 mg/d, Part C, NC GT1b, 150 mg/d Compound 2 QD, read-out: Tmax Day 1", "value": 30, "unit": "min"},
      {"measurement": "Cmax", "setting": "[1]; 150 mg/d, steady state, Part C, NC GT1b, 150 mg/d Compound 2 QD, read-out: Cmax SS", "value": "462 ± 409", "unit": "ng/mL"},
      {"measurement": "half-life", "setting": "[1]; 150 mg/d, steady state, Part C, NC GT1b, 150 mg/d Compound 2 QD, read-out: T1/2 SS (converted)", "value": 38.4, "unit": "min"},
      {"measurement": "Tmax", "setting": "[1]; 150 mg/d, steady state, Part C, NC GT1b, 150 mg/d Compound 2 QD, read-out: Tmax SS", "value": 60, "unit": "min"},
      {"measurement": "Cmax", "setting": "[1]; 300 mg/d, Part C, NC GT1b, 300 mg/d Compound 2 QD, read-out: Cmax Day 1", "value": "2280 ± 893", "unit": "ng/mL"},
      {"measurement": "half-life", "setting": "[1]; 300 mg/d, Part C, NC GT1b, 300 mg/d Compound 2 QD, read-out: T1/2 Day 1 (converted)", "value": 48, "unit": "min"},
      {"measurement": "Tmax", "setting": "[1]; 300 mg/d, Part C, NC GT1b, 300 mg/d Compound 2 QD, read-out: Tmax Day 1", "value": 30, "unit": "min"},
      {"measurement": "Cmax", "setting": "[1]; 300 mg/d, steady state, Part C, NC GT1b, 300 mg/d Compound 2 QD, read-out: Cmax SS", "value": "1830 ± 1310", "unit": "ng/mL"},
      {"measurement": "half-life", "setting": "[1]; 300 mg/d, steady state, Part C, NC GT1b, 300 mg/d Compound 2 QD, read-out: T1/2 SS (converted)", "value": 43.8, "unit": "min"},
      {"measurement": "Tmax", "setting": "[1]; 300 mg/d, steady state, Part C, NC GT1b, 300 mg/d Compound 2 QD, read-out: Tmax SS", "value": 30, "unit": "min"},
      {"measurement": "Cmax", "setting": "[1]; 600 mg/d, Part C, NC GT1b, 600 mg/d Compound 2 QD, read-out: Cmax Day 1", "value": "4210 ± 2300", "unit": "ng/mL"},
      {"measurement": "half-life", "setting": "[1]; 600 mg/d, Part C, NC GT1b, 600 mg/d Compound 2 QD, read-out: T1/2 Day 1 (converted)", "value": 51.6, "unit": "min"},
      {"measurement": "Tmax", "setting": "[1]; 600 mg/d, Part C, NC GT1b, 600 mg/d Compound 2 QD, read-out: Tmax Day 1", "value": 30, "unit": "min"},
      {"measurement": "Cmax", "setting": "[1]; 600 mg/d, Part D, NC GT3, 600 mg/d Compound 2 QD, read-out: Cmax Day 1", "value": "3970 ± 1940", "unit": "ng/mL"},
      {"measurement": "half-life", "setting": "[1]; 600 mg/d, Part D, NC GT3, 600 mg/d Compound 2 QD, read-out: T1/2 Day 1 (converted)", "value": 43.8, "unit": "min"},
      {"measurement": "Tmax", "setting": "[1]; 600 mg/d, Part D, NC GT3, 600 mg/d Compound 2 QD, read-out: Tmax Day 1", "value": 30, "unit": "min"},
      {"measurement": "Cmax", "setting": "[1]; 600 mg/d, Part E, Child-Pugh A cirrhotic, 600 mg/d Compound 2 QD, read-out: Cmax Day 1", "value": "3410 ± 2180", "unit": "ng/mL"},
      {"measurement": "half-life", "setting": "[1]; 600 mg/d, Part E, Child-Pugh A cirrhotic, 600 mg/d Compound 2 QD, read-out: T1/2 Day 1 (converted)", "value": 51.6, "unit": "min"},
      {"measurement": "Tmax", "setting": "[1]; 600 mg/d, Part E, Child-Pugh A cirrhotic, 600 mg/d Compound 2 QD, read-out: Tmax Day 1", "value": 30, "unit": "min"},
      {"measurement": "Cmax", "setting": "[1]; 600 mg/d, steady state, Part C, NC GT1b, 600 mg/d Compound 2 QD, read-out: Cmax SS", "value": "3600 ± 1740", "unit": "ng/mL"},
      {"measurement": "half-life", "setting": "[1]; 600 mg/d, steady state, Part C, NC GT1b, 600 mg/d Compound 2 QD, read-out: T1/2 SS (converted)", "value": 51, "unit": "min"},
      {"measurement": "Tmax", "setting": "[1]; 600 mg/d, steady state, Part C, NC GT1b, 600 mg/d Compound 2 QD, read-out: Tmax SS", "value": 30, "unit": "min"},
      {"measurement": "Cmax", "setting": "[1]; 600 mg/d, steady state, Part D, NC GT3, 600 mg/d Compound 2 QD, read-out: Cmax SS", "value": "4140 ± 2280", "unit": "ng/mL"},
      {"measurement": "half-life", "setting": "[1]; 600 mg/d, steady state, Part D, NC GT3, 600 mg/d Compound 2 QD, read-out: T1/2 SS (converted)", "value": 49.8, "unit": "min"},
      {"measurement": "Tmax", "setting": "[1]; 600 mg/d, steady state, Part D, NC GT3, 600 mg/d Compound 2 QD, read-out: Tmax SS", "value": 30, "unit": "min"},
      {"measurement": "Cmax", "setting": "[1]; 600 mg/d, steady state, Part E, Child-Pugh A cirrhotic, 600 mg/d Compound 2 QD, read-out: Cmax SS", "value": "3190 ± 2080", "unit": "ng/mL"},
      {"measurement": "half-life", "setting": "[1]; 600 mg/d, steady state, Part E, Child-Pugh A cirrhotic, 600 mg/d Compound 2 QD, read-out: T1/2 SS (converted)", "value": 48.6, "unit": "min"},
      {"measurement": "Tmax", "setting": "[1]; 600 mg/d, steady state, Part E, Child-Pugh A cirrhotic, 600 mg/d Compound 2 QD, read-out: Tmax SS", "value": 30, "unit": "min"},
      {"measurement": "AUC SS (AUCinf for Compound 1)", "setting": "[1]; steady state, Part C, NC GT1b, 150 mg/d Compound 2 QD", "value": "475 ± 301", "unit": "ng/mLxh"},
      {"measurement": "AUC SS (AUCinf for Compound 1)", "setting": "[1]; steady state, Part C, NC GT1b, 300 mg/d Compound 2 QD", "value": "1510 ± 976", "unit": "ng/mLxh"},
      {"measurement": "AUC SS (AUCinf for Compound 1)", "setting": "[1]; steady state, Part C, NC GT1b, 600 mg/d Compound 2 QD", "value": "4036 ± 2093", "unit": "ng/mLxh"},
      {"measurement": "AUC SS (AUCinf for Compound 1)", "setting": "[1]; steady state, Part D, NC GT3, 600 mg/d Compound 2 QD", "value": "3754 ± 2275", "unit": "ng/mLxh"},
      {"measurement": "AUC SS (AUCinf for Compound 1)", "setting": "[1]; steady state, Part E, Child-Pugh A cirrhotic, 600 mg/d Compound 2 QD", "value": "3527 ± 1605", "unit": "ng/mLxh"},
      {"measurement": "EC95", "setting": "HCV GT3 replicons", "value": "~0.018", "unit": "µg/mL"}
    ]}
  ]
}
